Source: US10160785B2, “Antimicrobial peptides and their use for the treatment of topical infections” (priority 2015, dated 2018)

Assays:
human red blood cells = assay: in vitro; conditions: in words
Method in brief: (§1)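 Hemolysis expressed as LC50, the concentration giving 50% erythrocyte lysis. Supernatant A540 was scaled between buffer-only blank and 0.2% Triton X100 total lysis after 1 h, 37 °C exposure of 5% v/v human red cells to 2-200 μmol.l^−1 peptide in physiological solution.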

[1] = system: Candida albicans ATCC MYA-2876; assay: microbe, parasite or virus in culture; format: cell-based; conditions: RPMI broth microdilution, 35° C., 48 hours, visual
Method in brief: (§2)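 RPMI 1640/0.165 M MOPS microdilution; peptides 0.625–160 μmol.l^−1 as pipetted; final 5×10^2–2.5×10^3 CFU/ml; 35 °C, static, 48 h; visual MIC = no-growth endpoint.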

[2] = system: Candida glabrata ATCC 2001; assay: microbe, parasite or virus in culture; format: cell-based; conditions: RPMI broth microdilution, 35° C., 48 hours, visual
Method in brief: as §2

Candida glabrata DSY 565 = assay: microbe, parasite or virus in culture; format: cell-based; conditions: RPMI broth microdilution, 35° C., 48 hours, visual
Method in brief: as §2

Candida krusei ATCC 6258 = assay: microbe, parasite or virus in culture; format: cell-based; conditions: RPMI broth microdilution, 35° C., 48 hours, visual
Method in brief: as §2

[3] = system: Candida tropicalis ATCC 750; assay: microbe, parasite or virus in culture; format: cell-based; conditions: RPMI broth microdilution, 35° C., 48 hours, visual
Method in brief: as §2

[4] = system: Candida albicans (Olomouc); assay: microbe, parasite or virus in culture; format: cell-based; conditions: RPMI broth microdilution, 35° C., 48 hours, visual
Method in brief: as §2

[5] = system: Candida dubliniensis ATCC MYA-646; assay: microbe, parasite or virus in culture; format: cell-based; conditions: RPMI broth microdilution, 35° C., 48 hours, visual
Method in brief: as §2

[6] = system: Enterococcus faecalis Motol; conditions: BHI medium, 37° C., 20 h
Procedure: (§3) Gram-positive bacteria (Micrococcus luteus, Bacillus subtilis, Staphylococcus aureus, Staphylococcus epidermidis and Enterococcus faecalis), Gram-negative bacteria (Escherichia coli and Pseudomonas aeruginosa) and the yeast (Candida albicans) were grown to exponential phase and then were diluted with fresh medium. BHI medium (Oxoid, Great Britain) was used for Enterococcus faecalis; YPD medium containing yeast extract peptone and glucose was used for Candida albicans and LB medium (Sigma, Czech Republic) was used for the remaining microorganisms. Then the microorganisms were added to the solutions of the tested antimicrobial peptides in LB medium in multi-well plates. The final peptide concentration it the wells was in the range of 0.1 to 100 μmol.l^−1. That was made by twofold serial dilution from the peptide stock solution (1 mmol.l^−1). The plates were incubated at 37° C. for 20 h while being continuously shaken in a Bioscreen C (Oy Growth Curves AB Ltd., Helsinki, Finland). Absorbance was measured at 540 nm every 15 min. Antimicrobial activity (Table 2) was determined as a quantitative minimum inhibitory concentration (MIC) by observing bacterial growth in the presence of different concentrations of tested peptides. In the experiments ca 10^5 CFU of bacteria or candida per well were routinely used.
(§4) Multiresistant clinical isolates of bacteria were obtained from University Hospital in Motol, Prague, Czech Republic and from Liberec Regional Hospital, Czech Republic. Methicillin resistant Staphylococcus aureus (MRSA) 6271 and Pseudomonas aeruginosa 5482 were from the Czech National Collection of Type Cultures, the National Institute of Public Health, Prague, Czech Republic. Other bacteria were from the Czech Collection of Microorganisms, Brno, Czech Republic. Candida albicans came from the Faculty of Medicine, Palacky University, Olomouc, Czech Republic.

Micrococcus luteus = conditions: Micrococcus luteus; 37° C., 20 h
Procedure: as §3, §4

Candida albicans Olomouc = conditions: Candida albicans Olomouc; YPD medium; 37° C., 20 h (Example 2)
Procedure: as §3, §4

[7] = system: Staphylococcus aureus Motol; conditions: Staphylococcus aureus Motol clinical isolate; 37° C., 20 h
Procedure: as §3, §4

[8] = system: Pseudomonas aeruginosa Liberec; conditions: Pseudomonas aeruginosa Liberec; 37° C., 20 h
Procedure: as §3, §4

Bacillus subtilis = conditions: Bacillus subtilis; 37° C., 20 h
Procedure: as §3, §4

Escherichia coli = conditions: 37° C., 20 h
Procedure: as §3, §4

[9] = system: Staphylococcus aureus Liberec; conditions: Staphylococcus aureus Liberec clinical isolate; 37° C., 20 h
Procedure: as §3, §4

[10] = system: Methicillin resistant Staphylococcus aureus (MRSA) 6271; conditions: 37° C., 20 h
Procedure: as §3, §4

[11] = system: Staphylococcus epidermidis Motol; conditions: 37° C., 20 h
Procedure: as §3, §4

[12] = system: Pseudomonas aeruginosa 5482; conditions: 37° C., 20 h
Procedure: as §3, §4

P. aeruginosa (Liberec) = assay: Synergistic effect of peptides with antibiotics, FIC index; format: cell-based, Pseudomonas aeruginosa; conditions: FIC <0.5 synergism, 0.5-2 additive, >2 antagonism, averages of three experiments; for FIC indexes (fractional inhibitory concentration) Combination with RIF against P. aeruginosa: peptide combined with rifampicin; for FIC indexes (fractional inhibitory concentration) Combination with TET against P. aeruginosa: peptide combined with tetracycline
Procedure: (§5) MICs values of various combinations of two fold serial dilutions of peptides and antibiotics were determined using the same methodology as in the case of antimicrobial activity determination (Example 2). To consider the type of the final effect, FIC indexes (fractional inhibitory concentration) were used and calculated as follows:
(§6) [formula] where MICPC and MICAC are the MICs of the peptide and antibiotic in combination, respectively, and MICP and MICA are the MICs of the peptide and antibiotic tested alone, respectively. FIC<0.5 were considered as synergy, 0.5≤FIC≤2 as addition effect, and FIC>2 as antagonism.

S. aureus (Liberec) = assay: as above; format: cell-based, Staphylococcus aureus; conditions: peptide combined with amoxicillin; FIC <0.5 synergism, 0.5-2 additive, >2 antagonism; averages of three experiments
Procedure: as §5, §6

in vitro = conditions: human
Method in brief: as §1

| Substance | Antifungal activity MIC C. albicans ATCC MYA-2876 [1] [µM] | Antifungal activity MIC C. glabrata ATCC 2001 [2] [µM] | Antifungal activity MIC C. glabrata DSY 565 (Candida glabrata DSY 565) [µM] | Antifungal activity MIC C. krusei ATCC 6258 (Candida krusei ATCC 6258) [µM] | Antifungal activity MIC C. tropicalis ATCC 750 [3] [µM] | Antifungal activity MIC C. albicans Olomouc [4] [µM] | Antifungal activity MIC C. dubliniensis ATCC MYA-646 [5] [µM] | Antimicrobial activity MIC E. f. Motol [6] [µM] | Antimicrobial activity MIC M. l. (Micrococcus luteus) [µM] | Antimicrobial activity MIC C. a. Olomouc (Candida albicans Olomouc) [µM] | Antimicrobial activity MIC S. a. Motol [7] [µM] | Antimicrobial activity MIC P. a. Liberec [8] [µM] | Antimicrobial activity MIC B. s. (Bacillus subtilis) [µM] | Antimicrobial activity MIC E. c. (Escherichia coli) [µM] | Antimicrobial activity MIC S. a. Liberec [9] [µM] | Antimicrobial activity MIC S. a. 6271 [10] [µM] | Antimicrobial activity MIC S. e. Motol [11] [µM] | Antimicrobial activity MIC P. a. 5482 [12] [µM] | FIC indexes (fractional inhibitory concentration) Combination with RIF against P. aeruginosa (P. aeruginosa (Liberec)) | FIC indexes (fractional inhibitory concentration) Combination with TET against P. aeruginosa (P. aeruginosa (Liberec)) | other results |
| --- | --- | --- | --- | --- | --- | --- | --- | --- | --- | --- | --- | --- | --- | --- | --- | --- | --- | --- | --- | --- | --- |
| H-GIMSSLMKKLAAHIAK-NH2 [hylanine, reference compound] |  |  |  |  |  |  |  |  |  |  |  |  |  |  |  |  |  |  |  |  | toxicity against eukaryotic cells measured as hemolytic activity (human red blood cells): very low |
| H-GIMSSLMKKLKKIIKK-NH2 [VII] | 22.0 | 40.0 | 97.8 | 10.0 | 1.1 | 17.0 | 20.0 | >100 | 1.9 | 6.3 | 64.7 | 9.9 | 2.5 | 22.0 | 18.0 | 54.0 | 1.7 | 7.1 | 0.365 | 0.625 | FIC indexes (fractional inhibitory concentration) Combination with AMX against S. aureus (S. aureus (Liberec)): 0.167; HC50 at 1 h (in vitro): > 400 µM |
| H-GIWSSLLKKLKKIIAK-NH2 [XIV] | 10.0 | 19.1 | 48.0 | 5.2 | 1.2 | 8.2 | 9.0 | 46.0 | 0.8 | 16.0 | 5.3 | 21.0 | 0.8 | 1.6 | 4.6 | 20.0 | 1.5 | 6.3 | 0.271 | 0.354 | FIC indexes (fractional inhibitory concentration) Combination with AMX against S. aureus (S. aureus (Liberec)): 0.396; HC50 at 1 h (in vitro): 165 µM |
| H-KILSSLLKKLKKIIAK-NH2 [VI] | 20.0 | 28.0 | 71.1 | 4.8 | 0.9 | 12.0 | 12.0 | 32.5 | 1.0 | 25.3 | 10.0 | 16.0 | 1.3 | 16.0 | 5.5 | 32.0 | 1.4 | 5.0 | 0.260 | 0.708 | FIC indexes (fractional inhibitory concentration) Combination with AMX against S. aureus (S. aureus (Liberec)): 0.292; HC50 at 1 h (in vitro): 364 µM |
